Reference: ChEMBL document CHEMBL5543105, “Total synthesis and structural modification of the dibenzylbutane lignan LCA as a potent anti-inflammatory agent against LPS-induced acute lung injury” (Eur J Med Chem, 2024)
Calls of active or inactive are those of the source. The rule behind the calls is not given here.

Columns and labels:
RAW264.7 [1] = test: Cytotoxicity against mouse RAW264.7 cells upto 20 uM incubated for 24 hrs by CCK-8 assay; type: toxicity, cell-based; settings: raw264.7, 24 h
RAW264.7 [2] = test: Anti-inflammatory activity against mouse RAW264.7 cells assessed as inhibition of LPS-induced NO production at 20 uM incubated for 24 hrs; type: functional, cell-based
RAW264.7 [3] = test: Anti-inflammatory activity against mouse RAW264.7 cells assessed as inhibition of LPS-stimulated nitric oxide production at 2.5 to 20 uM incubated for 5 hrs by Griess reagent based microplate reader analysis; type: functional, cell-based; settings: dose 2.5-20 µM
RAW264.7 [4] = test: Anti-inflammatory activity against mouse RAW264.7 cells assessed as reduction in NO level pretreated with compound for 1 hr followed by LPS-induction and measured after 24 hrs; type: functional, cell-based; settings: dose 1.25-20 µM, time 25.0 hrs
RAW264.7 [5] = test: Anti-inflammatory activity against mouse RAW264.7 cells assessed as reduction in LPS-induced IL-6 level pretreated with compound for 1 hr followed by LPS-induction and measured after 24 hrs by ELISA analysis; type: functional, cell-based; settings: dose 1.25-20 µM, time 25.0 hrs
RAW264.7 [6] = test: Anti-inflammatory activity against mouse RAW264.7 cells assessed as reduction in LPS-induced TNF-alpha level pretreated with compound for 1 hr followed by LPS-induction and measured after 24 hrs by ELISA analysis; type: functional, cell-based; settings: dose 1.25-20 µM, time 25.0 hrs
RAW264.7 [7] = test: Anti-inflammatory activity against mouse RAW264.7 cells assessed as reduction in LPS-induced IL-1beta level pretreated with compound for 1 hr followed by LPS-induction and measured after 24 hrs by ELISA analysis; type: functional, cell-based; settings: dose 1.25-20 µM, time 25.0 hrs
RAW264.7 [8] = test: Anti-inflammatory activity against mouse RAW264.7 cells assessed as inhibition of LPS-induced IL-6 mRNA expression pretreated with compound for 1 hr followed by LPS-induction and measured after 24 hrs by RT-qPCR analysis; type: functional, cell-based; settings: dose 10-20 µM, time 25.0 hrs
RAW264.7 [9] = test: Anti-inflammatory activity against mouse RAW264.7 cells assessed as inhibition of LPS-induced TNF-alpha mRNA expression pretreated with compound for 1 hr followed by LPS-induction and measured after 24 hrs by RT-qPCR analysis; type: functional, cell-based; settings: dose 10-20 µM, time 25.0 hrs
RAW264.7 [10] = test: Anti-inflammatory activity against mouse RAW264.7 cells assessed as inhibition of LPS-induced IL-1beta mRNA expression pretreated with compound for 1 hr followed by LPS-induction and measured after 24 hrs by RT-qPCR analysis; type: functional, cell-based; settings: dose 10-20 µM, time 25.0 hrs
RAW264.7 [11] = test: Anti-inflammatory activity against mouse RAW264.7 cells assessed as inhibition of LPS-induced p65 phosphorylation at 10 to 20 uM pretreated with compound for 1 hr followed by LPS-induction and measured after 4 hrs by Western blot analysis; type: functional, cell-based; settings: dose 10-20 µM, time 5.0 hrs
RAW264.7 [12] = test: Anti-inflammatory activity against mouse RAW264.7 cells assessed as reduction in LPS-induced IkappaBalpha level at 10 to 20 uM pretreated with compound for 1 hr followed by LPS-induction and measured after 4 hrs by Western blot analysis; type: functional, cell-based; settings: dose 10-20 µM, time 5.0 hrs
RAW264.7 [13] = test: Anti-inflammatory activity against mouse RAW264.7 cells assessed as inhibition of LPS-induced nuclear translocation at 10 to 20 uM pretreated with compound for 1 hr followed by LPS-induction and measured after 4 hrs by DAPI staining based fluorescence microscopic analysis; type: functional, cell-based; settings: dose 10-20 µM, time 5.0 hrs
Mus musculus [14] = test: Anti-inflammatory activity against LPS-induced acute […] injury C57BL/6 mouse model assessed as reduction in IL-6 level in BALF at 20 mg/kg, ip administered for 1 hr and measured after 6 hrs by ELISA analysis; type: functional, organism-based; settings: time 7.0 hrs
Mus musculus [15] = test: Anti-inflammatory activity against LPS-induced acute […] injury C57BL/6 mouse model assessed as reduction in TNF-alpha level in BALF at 20 mg/kg, ip administered for 1 hr and measured after 6 hrs by ELISA analysis; type: functional, organism-based; settings: time 7.0 hrs
Mus musculus [16] = test: Anti-inflammatory activity against LPS-induced acute […] injury C57BL/6 mouse model assessed as reduction in IL-1beta level in BALF at 20 mg/kg, ip administered for 1 hr and measured after 6 hrs by ELISA analysis; type: functional, organism-based; settings: time 7.0 hrs
Mus musculus [17] = test: Anti-inflammatory activity against LPS-induced acute […] injury C57BL/6 mouse model assessed as reduction in IL-6 level in serum at 20 mg/kg, ip administered for 1 hr and measured after 6 hrs by ELISA analysis; type: functional, organism-based; settings: time 7.0 hrs
Mus musculus [18] = test: Anti-inflammatory activity against LPS-induced acute […] injury C57BL/6 mouse model assessed as reduction in TNF-alpha level in serum at 20 mg/kg, ip administered for 1 hr and measured after 6 hrs by ELISA analysis; type: functional, organism-based; settings: time 7.0 hrs
Mus musculus [19] = test: Anti-inflammatory activity against LPS-induced acute […] injury C57BL/6 mouse model assessed as reduction in IL-1beta level in serum at 20 mg/kg, ip administered for 1 hr and measured after 6 hrs by ELISA analysis; type: functional, organism-based; settings: time 7.0 hrs
Mus musculus [20] = test: Anti-inflammatory activity against LPS-induced acute […] injury C57BL/6 mouse model assessed as improvement in destruction of lung structure at 20 mg/kg, ip administered for 1 hr and measured after 6 hrs by H and E staining based analysis; type: functional, organism-based; settings: time 7.0 hrs
Mus musculus [21] = test: Anti-inflammatory activity against LPS-induced acute […] injury C57BL/6 mouse model assessed as improvement in lung edema at 20 mg/kg, ip administered for 1 hr and measured after 6 hrs by H and E staining based analysis; type: functional, organism-based; settings: time 7.0 hrs
Mus musculus [22] = test: Anti-inflammatory activity against LPS-induced acute […] injury C57BL/6 mouse model assessed as improvement in alveolar wall thickness at 20 mg/kg, ip administered for 1 hr and measured after 6 hrs by H and E staining based analysis; type: functional, organism-based; settings: time 7.0 hrs
Mus musculus [23] = test: Anti-inflammatory activity against LPS-induced acute […] injury C57BL/6 mouse model assessed as improvement in pulmonary hemorrhage at 20 mg/kg, ip administered for 1 hr and measured after 6 hrs by H and E staining based analysis; type: functional, organism-based; settings: time 7.0 hrs
Mus musculus [24] = test: Anti-inflammatory activity against LPS-induced acute […] injury C57BL/6 mouse model assessed as reduction in inflammatory cell infiltration at 20 mg/kg, ip administered for 1 hr and measured after 6 hrs by H and E staining based analysis; type: functional, organism-based; settings: time 7.0 hrs
Mus musculus [25] = test: Anti-inflammatory activity against LPS-induced acute […] injury C57BL/6 mouse model assessed as reduction in lung edema at 20 mg/kg, ip administered for 1 hr and measured after 6 hrs by H and E staining based analysis; type: functional, organism-based; settings: time 7.0 hrs
Mus musculus [26] = test: Anti-inflammatory activity against LPS-induced acute […] injury C57BL/6 mouse model assessed as improvement in alveolar structure at 20 mg/kg, ip administered for 1 hr and measured after 6 hrs by H and E staining based analysis; type: functional, organism-based; settings: time 7.0 hrs
Mus musculus [27] = test: Anti-inflammatory activity against LPS-induced acute […] injury C57BL/6 mouse model assessed as reduction in bleeding points in lung at 20 mg/kg, ip administered for 1 hr and measured after 6 hrs by H and E staining based analysis; type: functional, organism-based; settings: time 7.0 hrs
Mus musculus [28] = test: Anti-inflammatory activity against LPS-induced acute […] injury C57BL/6 mouse model assessed as reduction in congestion in lung at 20 mg/kg, ip administered for 1 hr and measured after 6 hrs by H and E staining based analysis; type: functional, organism-based; settings: time 7.0 hrs
Mus musculus [29] = test: Anti-inflammatory activity against LPS-induced acute […] injury C57BL/6 mouse model assessed as reduction in alveolar thickness in lung at 20 mg/kg, ip administered for 1 hr and measured after 6 hrs by H and E staining based analysis; type: functional, organism-based; settings: time 7.0 hrs
Mus musculus [30] = test: Anti-inflammatory activity against LPS-induced acute […] injury C57BL/6 mouse model assessed as reduction in wet weight to dry weight ratio in lung at 20 mg/kg, ip administered for 1 hr and measured after 6 hrs; type: functional, organism-based; settings: time 7.0 hrs
Mus musculus [31] = test: Anti-inflammatory activity against LPS-induced acute […] injury C57BL/6 mouse model assessed as decrease in IL-6 mRNA expression in lung at 20 mg/kg, ip administered for 1 hr and measured after 6 hrs by RT-qPCR analysis; type: functional, organism-based; settings: time 7.0 hrs
Mus musculus [32] = test: Anti-inflammatory activity against LPS-induced acute […] injury C57BL/6 mouse model assessed as decrease in TNF-alpha mRNA expression in lung at 20 mg/kg, ip administered for 1 hr and measured after 6 hrs by RT-qPCR analysis; type: functional, organism-based; settings: time 7.0 hrs
Mus musculus [33] = test: Anti-inflammatory activity against LPS-induced acute […] injury C57BL/6 mouse model assessed as decrease in IL-1beta mRNA expression in lung at 20 mg/kg, ip administered for 1 hr and measured after 6 hrs by RT-qPCR analysis; type: functional, organism-based; settings: time 7.0 hrs

In the case of `COc1cc(C[C@H](C(=O)N2CCN(c3cccc(C)c3C)CC2)[C@@H](Cc2cc(OC)c(O)c(OC)c2)C(=O)N2CCN(c3cccc(C)c3C)CC2)cc(OC)c1O`, the Activity (RAW264.7 [1]) is reported as “Non-Toxic”, the Activity (RAW264.7 [2]) is reported as “Active” and the Activity (RAW264.7 [3]) is reported as “Active”. For the same molecule, the Activity (RAW264.7 [4]) was “Dose-Dependent Effect”, the Activity (RAW264.7 [5]) was “Dose-Dependent Effect” and the Activity (RAW264.7 [6]) was “Dose-Dependent Effect”. For the same molecule, the Activity (RAW264.7 [7]) was “Dose-Dependent Effect”, the Activity (RAW264.7 [8]) was “Dose-Dependent Effect” and the Activity (RAW264.7 [9]) was “Dose-Dependent Effect”. For the same molecule, the Activity (RAW264.7 [10]) was “Dose-Dependent Effect”, the Activity (RAW264.7 [11]) was “Active” and the Activity (RAW264.7 [12]) was “Active”. The Activity (RAW264.7 [13]) was “Active”, the Activity (Mus musculus [14]) was “Active” and the Activity (Mus musculus [15]) was “Active”. For the same molecule, the Activity (Mus musculus [16]) was “Active”, the Activity (Mus musculus [17]) was “Active” and the Activity (Mus musculus [18]) was “Active”. The Activity (Mus musculus [19]) was “Active”, the Activity (Mus musculus [20]) was “Active” and the Activity (Mus musculus [21]) was “Active”. For the same molecule, the Activity (Mus musculus [22]) was “Active”, the Activity (Mus musculus [23]) was “Active” and the Activity (Mus musculus [24]) was “Active”. The Activity (Mus musculus [25]) was “Active”, the Activity (Mus musculus [26]) was “Active” and the Activity (Mus musculus [27]) was “Active”. For the same molecule, the Activity (Mus musculus [28]) was “Active”, the Activity (Mus musculus [29]) was “Active” and the Activity (Mus musculus [30]) was “Active”. The Activity (Mus musculus [31]) was “Active”, the Activity (Mus musculus [32]) was “Active” and the Activity (Mus musculus [33]) was “Active”.
